Structures can show the parent of a compound that is named as a salt.
Assays:
Assay type in all cases: physicochemical
[1] = Chemical stability (total impurities) of beclomethasone dipropionate formulations with varying ethanol and glycerol in uncoated aluminium cans; conditions: for % Total Imps T = 0 / % Total Imps T = 1 M @ 40° C./75% RH / % Total Imps T = 3 M @ 40° C./75% RH: uncoated aluminium cans
Experimental: A number of experiments were conducted to investigate the stability of beclomethasone dipropionate in HFA-134a and HFA-152a.
(§1) Anhydrous ethanol in an amount of 5, 10 or 15 weight % based on the total weight of the formulation and glycerol in an amount of 0, 1 or 2 weight %, again based on the total weight of the formulation, were then added to the canisters. […] The nominal dose of beclomethasone dipropionate was […].

[2] = In vitro aerosolization performance (Next Generation Impactor) of beclomethasone dipropionate / formoterol fumarate dihydrate combination MDI formulations; conditions: after 1 month at ambient conditions, NGI 30 L/min
[3] = In vitro aerosolization performance (Next Generation Impactor) of beclomethasone dipropionate MDI formulations in HFA-152a with varying ethanol and glycerol; conditions: immediately after preparation
Experimental: A number of experiments were conducted to investigate the effects of glycerol on the in vitro aerosolization performance of drug formulations of beclomethasone dipropionate delivered from a metered dose inhaler (MDI) using HFA-152a as the propellant.
as §1, with “Pharmaceutical formulations of beclomethasone dipropionate were prepared in HFA-152a (Mexichem, UK). […] Anhydrous” for “Anhydrous”

[4] = HFA-134a, 5 wt. % ethanol, 0 wt. % glycerol
[5] = HFA-134a, 5 wt. % ethanol, 1 wt. % glycerol
[6] = HFA-134a, 5 wt. % ethanol, 2 wt. % glycerol
[7] = HFA-134a, 10 wt. % ethanol, 0 wt. % glycerol
[8] = HFA-134a, 10 wt. % ethanol, 1 wt. % glycerol
[9] = HFA-134a, 10 wt. % ethanol, 2 wt. % glycerol
[10] = HFA-134a, 15 wt. % ethanol, 0 wt. % glycerol
[11] = HFA-134a, 15 wt. % ethanol, 1 wt. % glycerol
[12] = HFA-134a, 15 wt. % ethanol, 2 wt. % glycerol
[13] = HFA-152a, 5 wt. % ethanol, 0 wt. % glycerol
[14] = HFA-152a, 5 wt. % ethanol, 1 wt. % glycerol
[15] = HFA-152a, 5 wt. % ethanol, 2 wt. % glycerol
[16] = HFA-152a, 10 wt. % ethanol, 0 wt. % glycerol
[17] = HFA-152a, 10 wt. % ethanol, 1 wt. % glycerol
[18] = HFA-152a, 10 wt. % ethanol, 2 wt. % glycerol
[19] = HFA-152a, 15 wt. % ethanol, 0 wt. % glycerol
[20] = HFA-152a, 15 wt. % ethanol, 1 wt. % glycerol
[21] = HFA-152a, 15 wt. % ethanol, 2 wt. % glycerol
[22] = combination formulation in HFA-134a and 10 weight % ethanol
[23] = combination formulation in HFA-152a and 10 weight % ethanol
[24] = 5 wt. % ethanol, 0 wt. % glycerol
[25] = 5 wt. % ethanol, 1 wt. % glycerol
[26] = 5 wt. % ethanol, 2 wt. % glycerol
[27] = 10 wt. % ethanol, 0 wt. % glycerol
[28] = 10 wt. % ethanol, 1 wt. % glycerol
[29] = 10 wt. % ethanol, 2 wt. % glycerol
[30] = 15 wt. % ethanol, 0 wt. % glycerol
[31] = 15 wt. % ethanol, 1 wt. % glycerol
[32] = 15 wt. % ethanol, 2 wt. % glycerol

In the case of `CCC(=O)OCC(=O)[C@@]1(OC(=O)CC)[C@@H](C)C[C@H]2[C@@H]3CCC4=CC(=O)C=C[C@]4(C)[C@@]3(Cl)[C@@H](O)C[C@@]21C` [beclomethasone dipropionate], the “% Total Imps T = 0” value [1, 4] is reported as 0.89%, the “% Total Imps T = 1 M @ 40° C./75% RH” value [1, 4] is reported as 1.58% and the “% Total Imps T = 3 M @ 40° C./75% RH” value [1, 4] is reported as 2.08%. For the same compound, the “% Total Imps T = 0” value [1, 5] was 0.34%, the “% Total Imps T = 1 M @ 40° C./75% RH” value [1, 5] was 1.91% and the “% Total Imps T = 3 M @ 40° C./75% RH” value [1, 5] was 2.14%. The “% Total Imps T = 0” value [1, 6] was 0.55%, the “% Total Imps T = 1 M @ 40° C./75% RH” value [1, 6] was 0.78% and the “% Total Imps T = 3 M @ 40° C./75% RH” value [1, 6] was 1.18%. The “% Total Imps T = 0” value [1, 7] was 1.16%, the “% Total Imps T = 1 M @ 40° C./75% RH” value [1, 7] was 1.82% and the “% Total Imps T = 3 M @ 40° C./75% RH” value [1, 7] was 2.21%. The “% Total Imps T = 0” value [1, 8] was 1.34%, the “% Total Imps T = 1 M @ 40° C./75% RH” value [1, 8] was 2.25% and the “% Total Imps T = 3 M @ 40° C./75% RH” value [1, 8] was 2.49%. The “% Total Imps T = 0” value [1, 9] was 1.49%, the “% Total Imps T = 1 M @ 40° C./75% RH” value [1, 9] was 1.97% and the “% Total Imps T = 3 M @ 40° C./75% RH” value [1, 9] was 2.35%. For the same compound, the “% Total Imps T = 0” value [1, 10] was 1.08%, the “% Total Imps T = 1 M @ 40° C./75% RH” value [1, 10] was 2.35% and the “% Total Imps T = 3 M @ 40° C./75% RH” value [1, 10] was 4.21%. For the same compound, the “% Total Imps T = 0” value [1, 11] was 2.88%, the “% Total Imps T = 1 M @ 40° C./75% RH” value [1, 11] was 3.15% and the “% Total Imps T = 3 M @ 40° C./75% RH” value [1, 11] was 3.99%. The “% Total Imps T = 0” value [1, 12] was 2.95%, the “% Total Imps T = 1 M @ 40° C./75% RH” value [1, 12] was 4.22% and the “% Total Imps T = 3 M @ 40° C./75% RH” value [1, 12] was 4.89%. For the same compound, the “% Total Imps T = 0” value [1, 13] was 0.08%, the “% Total Imps T = 1 M @ 40° C./75% RH” value [1, 13] was 0.16% and the “% Total Imps T = 3 M @ 40° C./75% RH” value [1, 13] was 0.35%. The “% Total Imps T = 0” value [1, 14] was 0.11%, the “% Total Imps T = 1 M @ 40° C./75% RH” value [1, 14] was 0.15% and the “% Total Imps T = 3 M @ 40° C./75% RH” value [1, 14] was 0.28%. The “% Total Imps T = 0” value [1, 15] was 0.09%, the “% Total Imps T = 1 M @ 40° C./75% RH” value [1, 15] was 0.21% and the “% Total Imps T = 3 M @ 40° C./75% RH” value [1, 15] was 0.34%. The “% Total Imps T = 0” value [1, 16] was 0.21%, the “% Total Imps T = 1 M @ 40° C./75% RH” value [1, 16] was 0.35% and the “% Total Imps T = 3 M @ 40° C./75% RH” value [1, 16] was 0.42%. For the same compound, the “% Total Imps T = 0” value [1, 17] was 0.34%, the “% Total Imps T = 1 M @ 40° C./75% RH” value [1, 17] was 0.36% and the “% Total Imps T = 3 M @ 40° C./75% RH” value [1, 17] was 0.55%. For the same compound, the “% Total Imps T = 0” value [1, 18] was 0.23%, the “% Total Imps T = 1 M @ 40° C./75% RH” value [1, 18] was 0.29% and the “% Total Imps T = 3 M @ 40° C./75% RH” value [1, 18] was 0.31%. For the same compound, the “% Total Imps T = 0” value [1, 19] was 0.56%, the “% Total Imps T = 1 M @ 40° C./75% RH” value [1, 19] was 0.89% and the “% Total Imps T = 3 M @ 40° C./75% RH” value [1, 19] was 1.11%. For the same compound, the “% Total Imps T = 0” value [1, 20] was 0.66%, the “% Total Imps T = 1 M @ 40° C./75% RH” value [1, 20] was 0.79% and the “% Total Imps T = 3 M @ 40° C./75% RH” value [1, 20] was 1.56%. For the same compound, the “% Total Imps T = 0” value [1, 21] was 0.72%, the “% Total Imps T = 1 M @ 40° C./75% RH” value [1, 21] was 0.89% and the “% Total Imps T = 3 M @ 40° C./75% RH” value [1, 21] was 1.48%. For the same compound, the “stability with HFA-152a as propellant rather than HFA-134a” value ([1]; all investigated levels of ethanol and glycerol, comparison of Tables 10 and 11) was “significantly higher”, the FPFED % [2, 22] was 63.16% and the “Fine Particle Dose” value [2, 22] was 98.92 µg. The “MMAD ± GSD” value [2, 22] was 1.41 ± 1.95 μm, the FPFED % [2, 23] was 55.67% and the “Fine Particle Dose” value [2, 23] was 105.11 µg. For the same compound, the “MMAD ± GSD” value [2, 23] was 1.57 ± 1.98 μm, the FPFED [3, 24] was 65.17% and the FPM [3, 24] was 114.36 µg. The “MMAD (μm) ± GSD” value [3, 24] was 1.27 ± 1.80 μm, the FPFED [3, 25] was 67.97% and the FPM [3, 25] was 123.94 µg. For the same compound, the “MMAD (μm) ± GSD” value [3, 25] was 1.55 ± 1.93 μm, the FPFED [3, 26] was 65.69% and the FPM [3, 26] was 120.25 µg. The “MMAD (μm) ± GSD” value [3, 26] was 1.62 ± 2.06 μm, the FPFED [3, 27] was 59.47% and the FPM [3, 27] was 117.15 µg. For the same compound, the “MMAD (μm) ± GSD” value [3, 27] was 1.33 ± 1.84 μm, the FPFED [3, 28] was 58.64% and the FPM [3, 28] was 116.83 µg. The “MMAD (μm) ± GSD” value [3, 28] was 2.09 ± 1.92 μm, the FPFED [3, 29] was 55.76% and the FPM [3, 29] was 104.23 µg. For the same compound, the “MMAD (μm) ± GSD” value [3, 29] was 2.19 ± 2.12 μm, the FPFED [3, 30] was 50.99% and the FPM [3, 30] was 102.86 µg. The “MMAD (μm) ± GSD” value [3, 30] was 1.42 ± 2.02 μm, the FPFED [3, 31] was 48.85% and the FPM [3, 31] was 96.11 µg. The “MMAD (μm) ± GSD” value [3, 31] was 2.29 ± 2.06 μm, the FPFED [3, 32] was 43.57% and the FPM [3, 32] was 83.04 µg. The “MMAD (μm) ± GSD” value [3, 32] was 2.59 ± 2.12 μm.
In the case of `COc1ccc(CC(C)NCC(O)c2ccc(O)c(NC=O)c2)cc1` (stereo not shown) [formoterol fumarate dihydrate], the FPFED % [2, 22] is reported as 66.35%, the “Fine Particle Dose” value [2, 22] is reported as 3.67 µg and the “MMAD ± GSD” value [2, 22] is reported as 1.36 ± 2.00 μm. For the same compound, the FPFED % [2, 23] was 60.01%, the “Fine Particle Dose” value [2, 23] was 3.57 µg and the “MMAD ± GSD” value [2, 23] was 1.51 ± 2.08 μm.

— patent US20200016174A1, “PHARMACEUTICAL COMPOSITION” (MEXICHEM FLUOR S.A. DE C.V., priority 2016, published 2020)
